# Measured values taken from patent US20240016781A1, “TREATMENT OF KRAS MUTANT CANCERS” (MEI Pharma, Inc., priority 2020, published 2024).
# Like-named read-outs stand apart in the source and are kept apart here.
# Experiments:
# Test in all cases: 72-hour CellTiter-Glo 2.0 growth inhibition screen (single agent, 9x9 combination dose matrix);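 for Best CI Level: inhibition effect level at which the best CI was calculated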
# Assay type in all cases: cell-based
# HPAF-II = details: for Response Area / EC50 / Emax: HPAF-II, Pancreas; for EC50 / Emax: Homo sapiens
# AsPC-1 = test system: AsPC-1;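 for Best CI Level: inhibition effect level at which the best CI was calculated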
# LS-513 = details: for EC50 / Emax: Homo sapiens; for EC50: LS-513, 72 h; for EC50 / Emax / Response Area: LS-513, Colorectal
# Calu-1 = details: for Response Area / EC50 / Emax: Calu-1, Lung; for EC50 / Emax: Homo sapiens; for EC50: Calu-1, 72 h
# SW48 KRAS (G12D/+) = details: for Response Area: Colorectal
# [1] = HPAF-II (KRAS G12D), enhancer + MEI-522 (Voruciclib), 72 h;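 for Best CI Level: inhibition effect level at which the best CI was calculated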
# [2] = Additional Single Agent Responses (inhibition, % I), 72 h
# [3] = growth inhibition (GI), AUC, single agent, 72 h
# [4] = Additional Single Agent Responses, 72 h, read-out: Max Response (% I)
# [5] = growth inhibition (GI), single agent, 72 h, read-out: Max Response (% GI)
# [6] = enhancer combined with MEI-522 (Voruciclib), HPAF-II (Pancreas), 72 hours, inhibition data
# [7] = AsPC-1 (KRAS G12D), enhancer + MEI-522 (Voruciclib), 72 h;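 for Best CI Level: inhibition effect level at which the best CI was calculated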
# [8] = enhancer combined with MEI-522 (Voruciclib), AsPC-1 (Pancreas), 72 hours, inhibition data
# [9] = growth inhibition (GI) curve, single agent, 72 h
# [10] = LS-513 (KRAS G12D), enhancer + MEI-522 (Voruciclib), 72 h;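 for Best CI Level: inhibition effect level at which the best CI was calculated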
# [11] = enhancer combined with MEI-522 (Voruciclib), LS-513 (Colorectal), 72 hours, inhibition data
# [12] = Calu-1 (KRAS G12C), enhancer + MEI-522 (Voruciclib), 72 h;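 for Best CI Level: inhibition effect level at which the best CI was calculated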
# [13] = enhancer combined with MEI-522 (Voruciclib), Calu-1 (Lung), 72 hours, inhibition data
# [14] = SW48 KRAS (G12D/+), enhancer + MEI-522 (Voruciclib), 72 h
# [15] = enhancer combined with MEI-522 (Voruciclib), SW48 KRAS (G12D/+) (Colorectal), 72 hours, inhibition data
structure (smiles),measurement,setting,value
C=CC(=O)N1CCN(c2nc(=O)n(-c3c(C)ccnc3C(C)C)c3nc(-c4c(O)cccc4F)c(F)cc23)[C@@H](C)C1 [AMG510],Best CI,HPAF-II; [1],0.06
same,Bliss Volume,HPAF-II; [1],−3.31
same,HSA volume,HPAF-II; [1],−4.44
same,Loewe Volume,HPAF-II; [1],−3.46
same,Synergy Score,HPAF-II; [1],0.12
same,Response Area,HPAF-II; [2],0.32
same,Response Area,HPAF-II; [3],0.47
same,EC50,"HPAF-II; 72 h, Additional Single Agent Responses (inhibition, % I)",2.4 µM
same,EC50,"HPAF-II; 72 h, growth inhibition (GI) curve, single agent",2.54 µM
same,Emax,HPAF-II; [4],11%
same,Emax,HPAF-II; [5],15%
same,Best CI,HPAF-II; [6],1.03
same,Bliss Volume,HPAF-II; [6],−2.30
same,HSA volume,HPAF-II; [6],−3.13
same,Loewe Volume,HPAF-II; [6],−2.28
same,Synergy Score,HPAF-II; [6],0.09
same,Best CI Level,"HPAF-II; enhancer combined with MEI-522 (Voruciclib), HPAF-II (Pancreas), 72 hours, inhibition data, unit assumed",20%
same,Best CI,AsPC-1; [7],0.47
same,Bliss Volume,AsPC-1; [7],2.91
same,HSA volume,AsPC-1; [7],−3.63
same,Loewe Volume,AsPC-1; [7],0.38
same,Synergy Score,AsPC-1; [7],0.82
same,Response Area,"AsPC-1; AsPC-1, Pancreas, Additional Single Agent Responses (inhibition, % I), 72 h",0.00
same,Response Area,"AsPC-1; AsPC-1, Pancreas, growth inhibition (GI), AUC, single agent, 72 h",0.00
same,EC50,"AsPC-1; Homo sapiens, ASPC1, AsPC-1, Pancreas, Additional Single Agent Responses (inhibition, % I), 72 h",3 µM
same,Emax,"AsPC-1; Homo sapiens, ASPC1, AsPC-1, Pancreas, Additional Single Agent Responses, 72 h, read-out: Max Response (% I)",6%
same,Emax,"AsPC-1; Homo sapiens, ASPC1, AsPC-1, Pancreas, growth inhibition (GI), single agent, 72 h, read-out: Max Response (% GI)",8%
same,Best CI,AsPC-1; [8],0.64
same,Best CI Level,AsPC-1; [8],20
same,Bliss Volume,AsPC-1; [8],1.95
same,HSA volume,AsPC-1; [8],−2.52
same,Loewe Volume,AsPC-1; [8],0.26
same,Synergy Score,AsPC-1; [8],0.32
same,EC50,LS-513; [2],0.321 µM
same,EC50,LS-513; [9],0.32 µM
same,Emax,LS-513; [4],3%
same,Emax,LS-513; [5],4%
same,Best CI,LS-513; [10],0.70
same,Bliss Volume,LS-513; [10],0.20
same,HSA volume,LS-513; [10],−2.06
same,Loewe Volume,LS-513; [10],−0.76
same,Synergy Score,LS-513; [10],1.51
same,Response Area,LS-513; [2],−0.19
same,Response Area,LS-513; [3],−0.23
same,Best CI,LS-513; [11],0.82
same,Best CI Level,LS-513; [11],20
same,Bliss Volume,LS-513; [11],−0.02
same,HSA volume,LS-513; [11],−1.47
same,Loewe Volume,LS-513; [11],−0.89
same,Synergy Score,LS-513; [11],0.37
same,Best CI,Calu-1; [12],0.80
same,Bliss Volume,Calu-1; [12],2.90
same,HSA volume,Calu-1; [12],2.88
same,Loewe Volume,Calu-1; [12],2.66
same,Synergy Score,Calu-1; [12],4.52
same,Response Area,Calu-1; [2],1.72
same,Response Area,Calu-1; [3],2.29
same,EC50,Calu-1; [2],0.0028 µM
same,EC50,Calu-1; [9],0.0029 µM
same,Emax,Calu-1; [4],37%
same,Emax,Calu-1; [5],48%
same,Best CI,Calu-1; [13],0.72
same,Best CI Level,Calu-1; [13],55
same,Bliss Volume,Calu-1; [13],−0.15
same,HSA volume,Calu-1; [13],1.55
same,Loewe Volume,Calu-1; [13],1.28
same,Synergy Score,Calu-1; [13],1.42
same,Bliss Volume,SW48 KRAS (G12D/+),−0.98
same,EC50,"SW48 KRAS (G12D/+); Homo sapiens, SW48, 72 h",3 µM
same,Emax,"SW48 KRAS (G12D/+); Homo sapiens, SW48, 72 h, read-out: Max Response (% GI)",15%
same,Emax,"SW48 KRAS (G12D/+); Homo sapiens, SW48, 72 h, read-out: Max Response (% I)",11%
same,Response Area,"SW48 KRAS (G12D/+); SW48 KRAS (G12D/+), Additional Single Agent Responses (inhibition, % I), 72 h",0.00
same,Response Area,"SW48 KRAS (G12D/+); SW48 KRAS (G12D/+), growth inhibition (GI), AUC, single agent, 72 h",0.00
same,Best CI,SW48 KRAS (G12D/+); [14],0.55
same,Bliss Volume,SW48 KRAS (G12D/+); [14],0.17
same,Loewe Volume,SW48 KRAS (G12D/+); [14],0.13
same,Synergy Score,SW48 KRAS (G12D/+); [14],2.74
same,Best CI,SW48 KRAS (G12D/+); [15],1.38
same,Loewe Volume,SW48 KRAS (G12D/+); [15],−0.76
same,Synergy Score,SW48 KRAS (G12D/+); [15],0.86
same,Best CI Level,"SW48 KRAS (G12D/+); enhancer combined with MEI-522 (Voruciclib), SW48 KRAS (G12D/+) (Colorectal), 72 hours, inhibition data, unit assumed",20%
